Results published in the NIST ThermoML archive (doi:10.1021/je800637t).
Numbers after ± are expanded uncertainties.

Assays:
[1] = refractive index (Na D-line) (dimensionless); mn = molality of the nth substance listed, in mol/kg; settings: 100.8 kPa, Liquid, Standard Abbe refractometry
[2] = mn = molality of the nth substance listed, in mol/kg; settings: 100.8 kPa, Liquid; for viscosity: Cone and plate viscometry; for electrical conductivity: Kyoto model CM-117 conductivity meter; for mass density: Vibrating tube method

O=[N+]([O-])[O-].[K+] [potassium nitrate] + O
Settings	electrical conductivity, [2] [S/m]	mass density, [2] [kg/m3]	refractive index, [1]	viscosity, [2] [mPa·s]
298.15 K, m1 = 0.3799	0.000381 ± 5e-06	1020.03 ± 0.09	1.33593 ± 0.0004	0.879 ± 0.008
298.15 K, m1 = 0.76	0.000705 ± 8e-06	1041.91 ± 0.06	1.33907 ± 0.0004	0.87 ± 0.011
298.15 K, m1 = 1.14	0.000985 ± 1.2e-05	1062.91 ± 0.08	1.34205 ± 0.0004	0.869 ± 0.008
298.15 K, m1 = 1.52	0.00122 ± 1.5e-05	1083.04 ± 0.12	1.34488 ± 0.0004	0.872 ± 0.012
298.15 K, m1 = 1.9	0.00144 ± 1.7e-05	1102.4 ± 0.12	1.34751 ± 0.0004	0.881 ± 0.008
298.15 K, m1 = 2.28	0.00162 ± 1.9e-05	1121.03 ± 0.09	1.35009 ± 0.0004	0.889 ± 0.008
298.15 K, m1 = 2.66	0.00179 ± 2.1e-05	1139.02 ± 0.1	1.35253 ± 0.0004	0.901 ± 0.011
298.15 K, m1 = 3.04	0.00194 ± 2.3e-05	1156.32 ± 0.13	1.35479 ± 0.0004	0.914 ± 0.014
298.15 K, m1 = 3.42	0.00211 ± 2.5e-05	1173.06 ± 0.12	1.35704 ± 0.0004	0.931 ± 0.008
298.15 K, m1 = 3.821	0.00223 ± 2.7e-05	1189.24 ± 0.13	1.35915 ± 0.0004	0.95 ± 0.009
313.15 K, m1 = 0.3799	0.000528 ± 6e-06	1014.52 ± 0.07	1.33384 ± 0.0004	0.652 ± 0.01
313.15 K, m1 = 0.76	0.000954 ± 1.1e-05	1035.85 ± 0.05	1.33687 ± 0.0004	0.654 ± 0.007
313.15 K, m1 = 1.14	0.00129 ± 1.5e-05	1056.36 ± 0.1	1.33975 ± 0.0004	0.657 ± 0.008
313.15 K, m1 = 1.52	0.00159 ± 1.9e-05	1076.08 ± 0.07	1.34248 ± 0.0004	0.665 ± 0.012
313.15 K, m1 = 1.9	0.00184 ± 2.2e-05	1095.07 ± 0.09	1.345 ± 0.0004	0.673 ± 0.008
313.15 K, m1 = 2.28	0.00208 ± 2.5e-05	1113.37 ± 0.13	1.34761 ± 0.0004	0.682 ± 0.009
313.15 K, m1 = 2.66	0.00227 ± 2.7e-05	1131.04 ± 0.1	1.34991 ± 0.0004	0.693 ± 0.01
313.15 K, m1 = 3.04	0.00248 ± 3e-05	1148.05 ± 0.13	1.35227 ± 0.0004	0.703 ± 0.008
313.15 K, m1 = 3.42	0.00263 ± 3.2e-05	1164.53 ± 0.15	1.35443 ± 0.0004	0.716 ± 0.01
313.15 K, m1 = 3.8	0.00278 ± 3.3e-05	1180.49 ± 0.12	1.35643 ± 0.0004	0.733 ± 0.014
313.15 K, m1 = 4.581	0.00308 ± 3.7e-05	1211.11 ± 0.15	1.36051 ± 0.00041	0.76 ± 0.008
313.15 K, m1 = 5.341	0.0033 ± 4e-05	1239.46 ± 0.18	1.36426 ± 0.00041	0.803 ± 0.009
313.15 K, m1 = 6.273	0.00357 ± 4.3e-05	1271.3 ± 0.2	1.36812 ± 0.00041	0.844 ± 0.011
